Measurements from the NIST ThermoML archive (doi:10.1016/j.fluid.2018.11.011).
Numbers after ± are expanded uncertainties.

Test: activity coefficient (dimensionless); of the first substance listed, at infinite dilution; xn = mol fraction of the nth substance listed
Conditions: 101.33 kPa, Liquid, Chromatography, x1 = 0

| Structure (SMILES) | activity coefficient (323 K) | activity coefficient (338 K) | activity coefficient (353 K) | activity coefficient (308 K) |
| --- | --- | --- | --- | --- |
| c1ccccc1 [benzene] + CCCCCCCCCC[N+](C)(C)CCCCCCCCCC.[O-][Cl+3]([O-])([O-])[O-] | 0.499 ± 0.055 | 0.59 ± 0.063 | 0.527 ± 0.057 | – |
| CCOCC [diethyl ether] + CCCCCCCCCC[N+](C)(C)CCCCCCCCCC.[O-][Cl+3]([O-])([O-])[O-] | 1.03 ± 0.1 | 0.848 ± 0.087 | 0.74 ± 0.077 | – |
| C1CCCCC1 [cyclohexane] + CCCCCCCCCC[N+](C)(C)CCCCCCCCCC.[O-][Cl+3]([O-])([O-])[O-] | 1.78 ± 0.19 | 1.66 ± 0.17 | 1.54 ± 0.16 | 2.05 ± 0.21 |
| C1CCOC1 [tetrahydrofuran] + CCCCCCCCCC[N+](C)(C)CCCCCCCCCC.F[B-](F)(F)F | 0.662 ± 0.07 | 0.619 ± 0.066 | 0.695 ± 0.073 | – |
| CCC(C)=O [butanone] + CCCCCCCCCC[N+](C)(C)CCCCCCCCCC.[O-][Cl+3]([O-])([O-])[O-] | 0.532 ± 0.058 | 0.59 ± 0.063 | 0.585 ± 0.063 | – |
| CCOCC [diethyl ether] + CCCCCCCCCC[N+](C)(C)CCCCCCCCCC.F[B-](F)(F)F | 1.08 ± 0.11 | 0.769 ± 0.08 | 0.79 ± 0.081 | – |
| CCCCCC [hexane] + CCCCCCCCCC[N+](C)(C)CCCCCCCCCC.F[B-](F)(F)F | 2.51 ± 0.26 | 2.3 ± 0.24 | 2.2 ± 0.23 | 2.73 ± 0.29 |
| C#CCCCCC [1-heptyne] + CCCCCCCCCC[N+](C)(C)CCCCCCCCCC.[O-][Cl+3]([O-])([O-])[O-] | 1.1 ± 0.11 | 1.17 ± 0.12 | 1.18 ± 0.12 | 1.14 ± 0.12 |
| C/C=C(\C)CC [(E)-3-methyl-2-pentene] + CCCCCCCCCC[N+](C)(C)CCCCCCCCCC.F[B-](F)(F)F | 1.71 ± 0.18 | 1.3 ± 0.13 | 1.43 ± 0.15 | – |
| CCCCCCC [heptane] + CCCCCCCCCC[N+](C)(C)CCCCCCCCCC.[O-][Cl+3]([O-])([O-])[O-] | 2.96 ± 0.31 | 2.85 ± 0.3 | 2.67 ± 0.28 | 3.11 ± 0.33 |
| c1ccccc1 [benzene] + CCCCCCCCCC[N+](C)(C)CCCCCCCCCC.F[B-](F)(F)F | 0.499 ± 0.055 | 0.519 ± 0.057 | 0.667 ± 0.07 | – |
| C1CCCC1 [cyclopentane] + CCCCCCCCCC[N+](C)(C)CCCCCCCCCC.F[B-](F)(F)F | 1.17 ± 0.12 | 1.13 ± 0.12 | 1.28 ± 0.13 | 1.21 ± 0.12 |
| CCCC [butane] + CCCCCCCCCC[N+](C)(C)CCCCCCCCCC.[O-][Cl+3]([O-])([O-])[O-] | 1.32 ± 0.14 | 1.28 ± 0.13 | 1.24 ± 0.13 | 1.36 ± 0.14 |
| CO [methanol] + CCCCCCCCCC[N+](C)(C)CCCCCCCCCC.F[B-](F)(F)F | 0.289 ± 0.038 | 0.285 ± 0.038 | 0.327 ± 0.041 | 0.294 ± 0.039 |
| C=CCCCCC [1-heptene] + CCCCCCCCCC[N+](C)(C)CCCCCCCCCC.F[B-](F)(F)F | 1.81 ± 0.19 | 1.83 ± 0.19 | 2.23 ± 0.23 | 1.79 ± 0.19 |
| C/C=C(\C)CC [(E)-3-methyl-2-pentene] + CCCCCCCCCC[N+](C)(C)CCCCCCCCCC.[O-][Cl+3]([O-])([O-])[O-] | 1.48 ± 0.15 | 1.49 ± 0.15 | 1.32 ± 0.14 | – |
| CC#N [acetonitrile] + CCCCCCCCCC[N+](C)(C)CCCCCCCCCC.[O-][Cl+3]([O-])([O-])[O-] | 0.543 ± 0.059 | 0.511 ± 0.056 | 0.46 ± 0.052 | – |
| CCCC [butane] + CCCCCCCCCC[N+](C)(C)CCCCCCCCCC.F[B-](F)(F)F | 1.12 ± 0.12 | 1.04 ± 0.1 | 0.939 ± 0.096 | 1.21 ± 0.12 |
| O=C1CCCCC1 [cyclohexanone] + CCCCCCCCCC[N+](C)(C)CCCCCCCCCC.F[B-](F)(F)F | 9.47 ± 1 | 7.99 ± 0.84 | 9.05 ± 0.95 | – |
| CCCCC [pentane] + CCCCCCCCCC[N+](C)(C)CCCCCCCCCC.F[B-](F)(F)F | 1.51 ± 0.16 | 1.24 ± 0.13 | 1.08 ± 0.11 | 1.85 ± 0.19 |
| C1CCCCCC1 [cycloheptane] + CCCCCCCCCC[N+](C)(C)CCCCCCCCCC.[O-][Cl+3]([O-])([O-])[O-] | 2.04 ± 0.21 | 1.91 ± 0.2 | 1.78 ± 0.19 | 2.29 ± 0.24 |
| CCCCCCCC [octane] + CCCCCCCCCC[N+](C)(C)CCCCCCCCCC.[O-][Cl+3]([O-])([O-])[O-] | 3.69 ± 0.39 | 3.42 ± 0.36 | 3.16 ± 0.33 | 3.98 ± 0.42 |
| C=CCCCCCC [oct-1-ene] + CCCCCCCCCC[N+](C)(C)CCCCCCCCCC.[O-][Cl+3]([O-])([O-])[O-] | 0.999 ± 0.1 | 1.04 ± 0.11 | 0.938 ± 0.096 | 1.1 ± 0.11 |
